{"source": "patent US20080003300A1", "about": "“Compostions containing Mg/Zn/F-CaP plus inhibitors of pro-inflammatory Cytokines (a combination of a Free-B-Ring flavonoids and a flavan) for osteoporosis prevention, therapy and treatment of bone diseases” (priority 2006, published 2008)", "origin": "cited, not measured here", "key": {"COX-2": {"biological_target": "T1, COX-2 (Ovis aries, UniProt P79208)", "T1 sequence (P79208 17-603)": "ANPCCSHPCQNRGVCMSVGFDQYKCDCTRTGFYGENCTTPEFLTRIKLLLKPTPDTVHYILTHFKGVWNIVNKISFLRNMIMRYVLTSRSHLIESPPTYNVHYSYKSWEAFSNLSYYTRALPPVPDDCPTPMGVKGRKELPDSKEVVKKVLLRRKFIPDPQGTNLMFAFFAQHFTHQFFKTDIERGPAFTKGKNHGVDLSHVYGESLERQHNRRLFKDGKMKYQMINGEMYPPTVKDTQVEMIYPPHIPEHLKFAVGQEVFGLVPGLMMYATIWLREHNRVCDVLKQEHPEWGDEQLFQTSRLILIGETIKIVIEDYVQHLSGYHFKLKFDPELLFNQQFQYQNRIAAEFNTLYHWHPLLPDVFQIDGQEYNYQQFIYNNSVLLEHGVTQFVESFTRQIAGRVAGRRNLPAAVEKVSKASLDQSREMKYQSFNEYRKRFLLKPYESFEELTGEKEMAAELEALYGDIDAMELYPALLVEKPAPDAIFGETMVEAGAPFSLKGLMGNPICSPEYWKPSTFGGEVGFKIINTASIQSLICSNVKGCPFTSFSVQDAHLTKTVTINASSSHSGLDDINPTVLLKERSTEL", "conditions": "Noreen et al. (1998)"}, "[1]": {"system": "COX-2 gene transcription in human colon cancer DLD-1 cells", "conditions": "Mutoh et al. (2000)"}, "[2]": {"system": "prostaglandin endoperoxide synthase", "conditions": "Kalkbrenner et al. (1992)"}}, "data": [{"compound": "Oc1cc(O)c2c(c1)O[C@H](c1ccc(O)c(O)c1)[C@@H](O)C2", "note": "[(+)-catechin]", "values": [{"measurement": "selectivity for COX-2", "setting": "COX-2", "value": "no selectivity for COX-2"}]}, {"compound": "Oc1cc(O)c2c(c1)OC(c1ccc(O)c(O)c1)C(O)C2", "note": "(stereo not drawn) [Catechin]", "values": [{"measurement": "IC50", "setting": "[1]", "value": 415, "unit": "µM"}, {"measurement": "IC50", "setting": "[2]", "value": 40, "unit": "µM"}]}]}
